Experimental data published in patent US20180099937A1, “NOVEL ARYL-CYANOGUANIDINE COMPOUNDS” (Bayer Pharma Aktiengesellschaft, priority 2015, published 2018).

Target: SMYD2 (Homo sapiens, UniProt Q9NRG4)
Assay: Scintillation Proximity Assay (SPA) for detection of SMYD2 enzymatic inhibition
Type: biochemical
Parameters: The SMYD2 full length enzyme was produced in-house by expression (with an N-terminal 6× His tag) in E. coli; 6xHis (N); made in house; host or cells: E. coli
Details: SMYD2 full length enzyme, p53 Peptide substrate 1.0 μM, 3H-SAM 60 nM; read-out: IC50 [mol/l] (SPA Assay)
Description: 1.1 Scintillation Proximity Assay (SPA) for Detection of SMYD2 Enzymatic Inhibition
SMYD2 inhibitory activities of the compounds described in the present invention were quantified using a scintillation proximity assay (SPA) which measures methylation by the enzyme of the synthetic, biotinylated peptide Btn-Ahx-[…]—Amid×TFA (Biosyntan) derived from p53 and referred to from here on as “p53 Peptide”. The SMYD2 full length enzyme was produced in-house by expression (with an N-terminal 6× His tag) in E. coli and purification by affinity chromatography on a Ni-NTA Sepharose column followed by a size exclusion chromatography step on a Superdex 200 16/60 column (GE Healthcare).
In a typical assay 11 different concentrations of each compound (0.1 nM, 0.33 nM, 1.1 nM, 3.8 nM, 13 nM, 44 nM, 0.15 μM, 0.51 μM, 1.7 μM, 5.9 μM and 20 μM) were tested in duplicate within the same microtiter plate. To this end, 100-fold concentrated compound solutions (in DMSO) were previously prepared by serial dilution (1:3.4) of 2 mM stocks in a clear low volume 384-well source microliter plate (Greiner Bio-One), from which 50 nl of compound solutions were transferred into a white low volume test microtiter plate from the same supplier. Subsequently, 2.5 μl SMYD2 in aqueous assay buffer [50 mM Tris/HCl pH 9.0 (AppliChem), 1 mM dithiothreitol (DTT, Sigma), 0.01% (w/v) bovine serum albumine (BSA, Sigma), 0.0022% (v/v) Pluronic (Sigma)] were added to the compounds in the test plate to a final enzyme concentration of —typically—3 nM (this parameter was adjusted depending on the activity of the enzyme lot in order to be within the linear dynamic range of the assay). The samples were then incubated for 15 min at 22° C. to allow pre-equilibration of the putative enzyme-inhibitor complexes before the start of the methylation reaction, which was initiated by the addition of 2.5 μl 2-fold concentrated solution (in assay buffer) of titriated S-Adenosyl-L-Methionine (3H-SAM, Perkin Elmer, final concentration: 60 nM) and p53 Peptide substrate (final concentration: 1.0 μM). The resulting mixture (5 μl final volume) was shortly centrifuged (2 min., 1500 rpm) and incubated at 22° C. during 30 min. Thereupon the reaction was stopped by adding 3 μl of Streptavidin PS SPA imaging beads (Perkin Elmer, final concentration of 3.12 μg/μl) and “cold” SAM (AK Scientific, 25 μM final concentration) for non-specific binding reduction. Plates containing the stopped reaction were sealed with transparent adhesive foil (Perkin Elmer), centrifuged (2 min., 1500 rpm), and further incubated for —at least—1 h at RT (or overnight at 4° C.) in order to allow the SPA signals to develop. Subsequently, the amount of product was evaluated by measuring the energy transfer from the β-particles emitted by the 3H-labeled substrate to the Europium scintillator co-polymerized in the polystyrene matrix of the PS imaging beads, using the standard settings for this purpose of a Viewlux (Perkin-Elmer) CCD plate imaging device (emission filter 613/55 (IFP). The resulting scintillation counts were taken as indicator for the amount of methylated peptide per well. The data were normalised using two sets of control wells (typically 16 each) for high−(=enzyme reaction with DMSO instead of test compound=0% =Minimum inhibition) and low−(=all assay components without enzyme=100% =Maximum inhibition) SMYD2 activity. IC50 values were calculated by fitting the normalized inhibition data to a 4-parameter logistic equation using the “Screener” analysis software from Genedata.

Chain of SMYD2 (Q9NRG4 whole entry): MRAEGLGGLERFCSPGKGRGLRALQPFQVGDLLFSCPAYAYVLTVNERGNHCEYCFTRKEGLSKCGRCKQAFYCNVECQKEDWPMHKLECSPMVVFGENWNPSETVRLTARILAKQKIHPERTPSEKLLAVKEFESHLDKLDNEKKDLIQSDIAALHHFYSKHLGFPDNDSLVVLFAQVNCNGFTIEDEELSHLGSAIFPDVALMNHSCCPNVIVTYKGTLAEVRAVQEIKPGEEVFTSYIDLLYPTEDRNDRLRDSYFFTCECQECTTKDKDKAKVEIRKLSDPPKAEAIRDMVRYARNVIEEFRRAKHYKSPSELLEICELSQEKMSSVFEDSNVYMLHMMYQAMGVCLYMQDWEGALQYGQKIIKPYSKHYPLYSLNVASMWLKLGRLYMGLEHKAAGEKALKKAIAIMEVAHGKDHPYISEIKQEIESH

IC50 [nM] | Molecule
33.6 | CCN(C(=O)[C@H]1CCCN1)C1CN(/C(=N\C#N)Nc2cccc(CC(F)(F)F)c2)N=C1c1ccc(Cl)c(Cl)c1 (single isomer, unassigned) [Example 31.1, N-[1-{N′-Cyano-N-[3-(2,2,2-trifluoroethyl)phenyl]carbamimidoyl}-3-(3,4-dichlorophenyl)-4,5-dihydro-1H-pyrazol-4-yl]-N-ethyl-D-prolinamide]
221 | CCN(C(=O)[C@H]1C[C@@H](O)CN1)C1CN(/C(=N\C#N)Nc2cc(C(F)(F)F)ccc2OC(F)(F)F)N=C1c1ccc(Cl)c(Cl)c1 (mixture of isomers) [Example 29, (4R)-N-[1-{N′-Cyano-N-[2-(trifluoromethoxy)-5-(trifluoromethyl)phenyl]carbamimidoyl}-3-(3,4-dichlorophenyl)-4,5-dihydro-1H-pyrazol-4-yl]-N-ethyl-4-hydroxy-D-prolinamide]
24.4 | CCN(C(=O)[C@H]1CCCN1)C1CN(/C(=N\C#N)Nc2ccc(F)c(OC(F)F)c2)N=C1c1ccc(Cl)c(Cl)c1 (mixture of isomers) [Example 15, N-[1-{N′-Cyano-N-[3-(difluoromethoxy)-4-fluorophenyl]carbamimidoyl}-3-(3,4-dichlorophenyl)-4,5-dihydro-1H-pyrazol-4-yl]-N-ethyl-D-prolinamide]
103 | CCN(C(=O)[C@H]1CCCN1)C1CN(/C(=N\C#N)Nc2ccc(F)c(OC)c2)N=C1c1ccc(Cl)c(Cl)c1 (mixture of isomers) [Example 33, N-{1-[N′-Cyano-N-(4-fluoro-3-methoxyphenyl)carbamimidoyl]-3-(3,4-dichlorophenyl)-4,5-dihydro-1H-pyrazol-4-yl}-N-ethyl-D-prolinamide]
96.6 | CCN(C(=O)[C@H]1CCCN1)C1CN(/C(=N\C#N)Nc2cc(C(F)(F)F)ccc2OC(F)(F)F)N=C1c1ccc(Cl)c(Cl)c1 (mixture of isomers) [Example 30, N-[1-{N′-Cyano-N-[2-(trifluoromethoxy)-5-(trifluoromethyl)phenyl]carbamimidoyl}-3-(3,4-dichlorophenyl)-4,5-dihydro-1H-pyrazol-4-yl]-N-ethyl-D-prolinamide]
519 | CCN(C(=O)[C@H]1C[C@@H](F)CN1)C1CN(/C(=N\C#N)Nc2cc(F)cc(OC(F)(F)F)c2)N=C1c1ccc(Cl)c(Cl)c1 (mixture of isomers) [Example 25, (4R)-N-[1-{N′-Cyano-N-[3-fluoro-5-(trifluoromethoxy)phenyl]carbamimidayl}-3-(3,4-dichlorophenyl)-4,5-dihydro-1H-pyrazol-4-yl]-N-ethyl-4-fluoro-D-prolinamide]
17.2 | CCN(C(=O)[C@H]1CCCN1)C1CN(/C(=N\C#N)Nc2cc(OC(F)(F)F)ccc2OC)N=C1c1ccc(Cl)c(Cl)c1 (mixture of isomers) [Example 19, N-[1-{N′-Cyano-N-[2-methoxy-5-(trifluoromethoxy)phenyl]carbamimidayl}-3-(3,4-dichlorophenyl)-4,5-dihydro-1H-pyrazol-4-yl]-N-ethyl-D-prolinamide]
12 | C[C@]1(C(=O)NC2CN(/C(=N\C#N)Nc3cccc(OC(F)F)c3)N=C2c2ccc(Cl)c(Cl)c2)CCCN1 (single isomer, unassigned) [Example 6.1, N-[1-{N′-Cyano-N-[3-(difluoromethoxy)phenyl]carbamimidoyl}-3-(3,4-dichlorophenyl)-4,5-dihydro-1H-pyrazol-1-yl]-2-methyl-D-prolinamide]
> 20000 | CCN(C(=O)[C@H]1C[C@@H](F)CN1)C1CN(/C(=N\C#N)Nc2cc(F)cc(OC(F)(F)F)c2)N=C1c1ccc(Cl)c(Cl)c1 (single isomer, unassigned) [Example 25.2]

More lines, now with the values behind:

Molecule | IC50 [nM]
CCN(C(=O)[C@H]1C[C@@H](O)CN1)C1CN(/C(=N\C#N)Nc2cccc(OC(F)F)c2)N=C1c1ccc(Cl)c(C)c1 (single isomer, unassigned) [Example 39.2] | 1640
CCN(C(=O)[C@H]1CCCN1)C1CN(/C(=N\C#N)Nc2cccc(OC(F)F)c2)N=C1c1ccc(Cl)c(Cl)c1 (single isomer, unassigned) [Example 1.2, N-[1-{N′-Cyano-N-[3-(difluoromethoxy)phenyl]carbamimidoyl}-3-(3,4-dichlorphenyl)-4,5-dihydro-1H-pyrazol-4-yl]-N-ethyl-D-prolinamide] | 362
CCN(C(=O)[C@H]1CCCN1)C1CN(/C(=N\C#N)Nc2cc(F)cc(OC(F)(F)F)c2)N=C1c1ccc(Cl)c(Cl)c1 (mixture of isomers) [Example 24, N-[1-{N′-Cyano-N-[3-fluoro-5-(trifluoromethoxy)phenyl]carbamimidoyl}-3-(3,4-dichlorophenyl)-4,5-dihydro-1H-pyrazol-4-yl]-N-ethyl-D-prolinamide] | 65.1
CCN(C(=O)[C@H]1C[C@@H](O)CN1)C1CN(/C(=N\C#N)Nc2cccc(OC(F)F)c2)N=C1c1ccc(Cl)c(Cl)c1 (single isomer, unassigned) [Example 3.2] | 2240
CC1(C)CN[C@@H](C(=O)NC2CN(/C(=N\C#N)Nc3cccc(OC(F)F)c3)N=C2c2ccc(Cl)c(Cl)c2)C1 (mixture of isomers) [Example 7, N-[1-{N′-Cyano-N-[3-(difluoromethoxy)phenyl]carbamimidoyl}-3-(3,4-dichlorophenyl)-4,5-dihydro-1H-pyrazol-1-yl]-4,4-dimethyl-D-prolinamide] | 490
CCN(C(=O)[C@H]1CCCN1)C1CN(/C(=N\C#N)Nc2cccc(OC(F)F)c2)N=C1c1ccc(Cl)c(C)c1 (mixture of isomers) [Example 37, N-[3-(4-Chloro-3-methylphenyl)-1-{N′-cyano-N-[3-(difluoromethoxy)phenyl]carbamimidoyl}-4,5-dihydro-1H-pyrazol-4-yl]-N-ethyl-D-prolinamide] | 18.7
CCN(C(=O)[C@H]1CCCN1)C1CN(/C(=N\C#N)Nc2cc(F)cc(OC(F)(F)F)c2)N=C1c1ccc(Cl)c(Cl)c1 (single isomer, unassigned) [Example 24.2, N-[1-{N′-Cyano-N-[3-fluoro-5-(trifluoromethoxy)phenyl]carbamimidoyl}-3-(3,4-diehlorophenyl)-4,5-dihydro-1H-pyrazol-4-yl]-N-ethyl-D-prolinamide] | 3950
CCN(C(=O)[C@H]1C[C@@H](O)CN1)C1CN(/C(=N\C#N)Nc2cccc(OC(F)F)c2)N=C1c1ccc(Cl)c(C)c1 (single isomer, unassigned) [Example 39.1] | 32.2
CCN(C(=O)[C@H]1C[C@@H](F)CN1)C1CN(/C(=N\C#N)Nc2cccc(OC(F)F)c2)N=C1c1ccc(Cl)c(Cl)c1 (single isomer, unassigned) [Example 4.1] | 39.9
(2R)-N-[3-(4-chlaro-3-methylphenyl)-1-{N′-cyano-N-[3-(difluoromethoxy)phenyl]carbamimidoyl}-4,5-dihydro-1H-pyrazol-4-yl]-N-ethylpiperidine-2-carboxamide [Example 46] | 1500
CCN(C(=O)[C@H]1CCCN1)C1CN(/C(=N\C#N)Nc2cccc(OC(F)(F)F)c2)N=C1c1ccc(Cl)c(Cl)c1 (mixture of isomers) [Example 17, N-[1-{N′-Cyano-N-[3-(trifluoromethoxy)phenyl]carbamimidoyl}-3-(3,4-dichlorophenyl)-4,5-dihydro-1H-pyrazol-4-yl]-N-ethyl-D-prolinamide] | 116
CCN(C(=O)c1cccc(=O)[nH]1)C1CN(/C(=N\C#N)Nc2cccc(OC(F)F)c2)N=C1c1ccc(Cl)c(Cl)c1 (single isomer, unassigned) [Example 5.1, N-[1-{N′-Cyrano-N-[3-(difluoromethoxy)phenyl]carbamimidoyl}-3-(3,4-dichlorophenyl)-4,5-dihydro-1H-pyrazol-1-yl]-N-ethyl-6-oxo-1,6-dihydropyridine-2-carboxamide] | 576
